Source: BindingDB's records for patent US11547697 (Millennium Pharmaceuticals, 2023)

Experiments:
Experiment in all cases: Inhibition Assay of PI3K
[1] = target: Phosphatidylinositol 4,5-bisphosphate 3-kinase catalytic subunit alpha isoform (Homo sapiens, UniProt P42336)
[2] = target: Phosphatidylinositol 4,5-bisphosphate 3-kinase catalytic subunit beta isoform (Homo sapiens, UniProt P42338)
[3] = target: Phosphatidylinositol 4,5-bisphosphate 3-kinase catalytic subunit gamma isoform (Homo sapiens, UniProt P48736)
[4] = target: T1, Phosphatidylinositol 4,5-bisphosphate 3-kinase catalytic subunit delta isoform (Homo sapiens, UniProt O00329)
T1 sequence (O00329 whole entry): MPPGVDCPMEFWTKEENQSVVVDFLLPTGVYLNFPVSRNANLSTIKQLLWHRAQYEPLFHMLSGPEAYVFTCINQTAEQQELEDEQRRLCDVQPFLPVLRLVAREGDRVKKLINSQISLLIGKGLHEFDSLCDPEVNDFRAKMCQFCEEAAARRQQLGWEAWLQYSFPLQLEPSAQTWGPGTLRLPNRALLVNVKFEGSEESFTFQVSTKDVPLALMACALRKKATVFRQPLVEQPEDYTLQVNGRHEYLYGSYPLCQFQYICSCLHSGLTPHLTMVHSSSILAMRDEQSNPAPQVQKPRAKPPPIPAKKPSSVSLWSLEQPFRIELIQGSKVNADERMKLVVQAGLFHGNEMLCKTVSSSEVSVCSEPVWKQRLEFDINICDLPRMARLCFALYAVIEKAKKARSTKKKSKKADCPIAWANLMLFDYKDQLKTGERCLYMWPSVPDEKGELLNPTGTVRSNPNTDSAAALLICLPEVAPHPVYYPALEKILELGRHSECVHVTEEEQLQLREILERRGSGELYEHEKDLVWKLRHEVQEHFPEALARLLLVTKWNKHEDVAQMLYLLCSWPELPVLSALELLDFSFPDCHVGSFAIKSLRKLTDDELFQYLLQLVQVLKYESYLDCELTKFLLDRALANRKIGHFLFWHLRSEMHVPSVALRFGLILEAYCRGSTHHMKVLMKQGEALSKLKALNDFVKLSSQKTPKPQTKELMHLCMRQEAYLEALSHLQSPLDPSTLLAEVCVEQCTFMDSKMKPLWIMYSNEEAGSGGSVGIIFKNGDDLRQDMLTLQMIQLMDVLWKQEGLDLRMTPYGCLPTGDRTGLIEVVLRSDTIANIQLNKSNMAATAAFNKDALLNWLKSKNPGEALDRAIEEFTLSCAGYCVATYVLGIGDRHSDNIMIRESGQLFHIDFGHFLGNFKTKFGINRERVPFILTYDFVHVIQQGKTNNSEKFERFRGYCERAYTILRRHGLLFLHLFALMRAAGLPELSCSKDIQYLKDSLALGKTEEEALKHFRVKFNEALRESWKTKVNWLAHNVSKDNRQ

Measured: IC50

Phosphatidylinositol 4,5-bisphosphate 3-kinase catalytic subunit gamma isoform, sequence (P48736 whole entry, canonical isoform): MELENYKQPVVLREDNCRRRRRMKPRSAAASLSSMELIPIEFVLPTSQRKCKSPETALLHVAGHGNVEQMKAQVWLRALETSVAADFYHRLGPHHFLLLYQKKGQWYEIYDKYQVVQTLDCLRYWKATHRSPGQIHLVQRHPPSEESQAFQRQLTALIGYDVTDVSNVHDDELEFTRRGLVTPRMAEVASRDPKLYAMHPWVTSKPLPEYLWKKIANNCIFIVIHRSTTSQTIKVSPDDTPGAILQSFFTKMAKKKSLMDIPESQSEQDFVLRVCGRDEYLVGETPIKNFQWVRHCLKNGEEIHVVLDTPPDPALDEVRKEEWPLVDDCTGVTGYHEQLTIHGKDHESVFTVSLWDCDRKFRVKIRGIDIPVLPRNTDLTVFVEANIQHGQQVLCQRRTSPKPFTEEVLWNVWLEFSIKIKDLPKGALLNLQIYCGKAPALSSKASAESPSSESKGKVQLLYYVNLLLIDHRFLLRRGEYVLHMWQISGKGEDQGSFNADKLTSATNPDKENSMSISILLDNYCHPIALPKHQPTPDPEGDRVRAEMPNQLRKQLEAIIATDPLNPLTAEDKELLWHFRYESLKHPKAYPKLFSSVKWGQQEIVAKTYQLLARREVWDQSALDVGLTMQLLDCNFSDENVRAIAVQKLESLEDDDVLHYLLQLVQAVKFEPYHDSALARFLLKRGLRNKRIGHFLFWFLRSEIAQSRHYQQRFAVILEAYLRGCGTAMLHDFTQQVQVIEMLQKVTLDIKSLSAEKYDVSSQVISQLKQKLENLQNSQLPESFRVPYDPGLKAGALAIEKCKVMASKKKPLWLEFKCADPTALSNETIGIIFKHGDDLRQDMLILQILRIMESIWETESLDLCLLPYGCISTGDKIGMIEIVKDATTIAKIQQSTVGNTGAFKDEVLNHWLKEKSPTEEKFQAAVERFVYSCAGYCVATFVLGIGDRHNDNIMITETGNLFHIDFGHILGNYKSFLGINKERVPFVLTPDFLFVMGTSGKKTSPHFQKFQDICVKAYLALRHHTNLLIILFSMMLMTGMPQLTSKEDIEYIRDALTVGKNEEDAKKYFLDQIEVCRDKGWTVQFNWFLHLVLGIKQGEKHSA
Phosphatidylinositol 4,5-bisphosphate 3-kinase catalytic subunit beta isoform, sequence (P42338 whole entry, canonical isoform): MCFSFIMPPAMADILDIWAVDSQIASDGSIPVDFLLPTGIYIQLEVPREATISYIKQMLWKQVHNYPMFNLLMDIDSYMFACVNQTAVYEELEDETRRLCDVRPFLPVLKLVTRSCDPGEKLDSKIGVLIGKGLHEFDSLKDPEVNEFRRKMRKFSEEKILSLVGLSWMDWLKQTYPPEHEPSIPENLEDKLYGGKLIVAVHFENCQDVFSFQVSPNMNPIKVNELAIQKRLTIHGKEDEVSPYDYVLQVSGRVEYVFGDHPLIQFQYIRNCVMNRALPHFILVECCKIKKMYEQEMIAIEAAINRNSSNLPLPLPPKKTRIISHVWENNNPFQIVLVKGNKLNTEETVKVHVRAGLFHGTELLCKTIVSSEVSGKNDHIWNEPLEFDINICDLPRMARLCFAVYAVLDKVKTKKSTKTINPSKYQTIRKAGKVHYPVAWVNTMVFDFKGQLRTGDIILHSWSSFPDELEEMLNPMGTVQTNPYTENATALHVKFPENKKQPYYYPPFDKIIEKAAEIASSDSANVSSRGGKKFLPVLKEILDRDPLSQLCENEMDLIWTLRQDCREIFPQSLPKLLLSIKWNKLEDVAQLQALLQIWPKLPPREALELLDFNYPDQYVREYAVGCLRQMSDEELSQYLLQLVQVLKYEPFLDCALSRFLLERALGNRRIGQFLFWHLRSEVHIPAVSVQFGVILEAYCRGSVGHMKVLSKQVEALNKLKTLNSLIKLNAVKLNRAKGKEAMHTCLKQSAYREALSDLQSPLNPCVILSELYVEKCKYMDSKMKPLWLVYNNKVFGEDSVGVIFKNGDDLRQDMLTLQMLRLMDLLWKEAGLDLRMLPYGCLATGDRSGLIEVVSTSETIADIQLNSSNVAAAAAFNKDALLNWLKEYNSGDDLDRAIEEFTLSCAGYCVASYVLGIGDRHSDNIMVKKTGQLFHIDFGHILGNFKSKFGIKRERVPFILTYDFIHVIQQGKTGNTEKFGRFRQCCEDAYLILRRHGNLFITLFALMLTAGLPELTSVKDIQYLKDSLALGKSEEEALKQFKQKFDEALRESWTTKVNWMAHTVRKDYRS
Phosphatidylinositol 4,5-bisphosphate 3-kinase catalytic subunit alpha isoform, sequence (P42336 whole entry, canonical isoform): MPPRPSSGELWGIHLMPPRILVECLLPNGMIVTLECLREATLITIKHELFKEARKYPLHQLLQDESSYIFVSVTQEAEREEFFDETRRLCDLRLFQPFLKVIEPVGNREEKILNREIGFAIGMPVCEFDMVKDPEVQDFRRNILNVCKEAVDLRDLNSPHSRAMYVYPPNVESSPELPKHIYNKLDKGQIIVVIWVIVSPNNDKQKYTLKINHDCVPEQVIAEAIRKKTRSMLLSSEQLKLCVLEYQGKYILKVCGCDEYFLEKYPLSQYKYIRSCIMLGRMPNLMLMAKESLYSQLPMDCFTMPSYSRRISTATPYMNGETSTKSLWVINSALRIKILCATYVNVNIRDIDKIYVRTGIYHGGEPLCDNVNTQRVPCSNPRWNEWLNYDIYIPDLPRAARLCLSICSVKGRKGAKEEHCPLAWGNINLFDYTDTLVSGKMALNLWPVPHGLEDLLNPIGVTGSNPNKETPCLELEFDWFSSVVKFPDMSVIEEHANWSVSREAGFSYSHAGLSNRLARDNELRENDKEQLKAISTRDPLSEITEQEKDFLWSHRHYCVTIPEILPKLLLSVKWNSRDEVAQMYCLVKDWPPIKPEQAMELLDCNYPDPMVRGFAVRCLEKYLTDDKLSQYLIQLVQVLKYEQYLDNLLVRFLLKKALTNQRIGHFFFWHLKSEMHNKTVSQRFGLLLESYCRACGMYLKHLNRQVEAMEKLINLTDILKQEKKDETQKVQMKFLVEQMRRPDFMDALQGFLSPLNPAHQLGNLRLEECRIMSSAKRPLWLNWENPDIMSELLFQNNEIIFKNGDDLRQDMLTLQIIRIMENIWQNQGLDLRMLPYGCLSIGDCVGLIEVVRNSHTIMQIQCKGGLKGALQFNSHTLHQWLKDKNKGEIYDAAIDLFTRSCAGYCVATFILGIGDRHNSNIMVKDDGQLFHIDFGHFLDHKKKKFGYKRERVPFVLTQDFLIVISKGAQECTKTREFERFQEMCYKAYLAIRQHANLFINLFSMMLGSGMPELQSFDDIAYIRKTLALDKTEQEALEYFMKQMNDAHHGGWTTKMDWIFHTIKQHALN

Nc1noc2c(-c3ccc4ncc(C(=O)N5CCOCC5)n4c3)cccc12 [US11547697, Compound 491]
> 10 µM: all assays above

Cc1c(-c2ccc3ncc(C(=O)N4CCOCC4)n3c2)ccc2oc(N)nc12 [US11547697, Compound 369]
> 10 µM: all assays above

CC(=O)n1nc(N)c2ccc(-c3ccc4oc(N)nc4c3)cc21 [US11547697, Compound 426]
> 10 µM: all assays above

Nc1nc2cc(-c3cnc4ncc(-c5ccncc5)n4c3)ccc2o1 [US11547697, Compound 61]
> 10 µM: all assays above

C[C@H]1CN(c2cnc3scc(-c4ccc5oc(N)nc5c4)c3c2)CCN1 [US11547697, Compound 399]
> 10 µM: all assays above

Nc1nc2cc(-c3nc4cc(-c5cccnc5)cnc4s3)ccc2o1 [US11547697, Compound 402]
> 10 µM: all assays above

CC(=O)Nc1nc2ccc(-c3nc(N4CCOCC4)c4sc(CN5CCN(S(C)(=O)=O)CC5)cc4n3)cc2s1 [US11547697, Compound 130]
> 10 µM: all assays above

CNS(=O)(=O)c1cccc(-c2ccc3ncc(C(=O)N4CCOCC4)n3c2)c1 [US11547697, Compound 442]
> 10 µM: all assays above

Cc1c(-c2ccc3oc(N)nc3c2)ccc2ncc(C(=O)N3CCOCC3)n12 [US11547697, Compound 349]
> 10 µM: all assays above

Nc1nc2ccc(-c3ccc4nc(N)oc4c3)cc2o1 [US11547697, Compound 246]
> 10 µM: all assays above

Nc1nc2cc(-c3cn4c(C(=O)N5CCOCC5)cnc4cn3)ccc2o1 [US11547697, Compound 122]
> 10 µM: all assays above

CC(=O)Nc1nc2cc(-c3ccc4oc(N)nc4c3)ccc2o1 [US11547697, Compound 244]
> 10 µM: all assays above

Nc1nc2cc(-c3ccc4ncn(C(=O)N5CCOCC5)c4c3)ccc2o1 [US11547697, Compound 317]
> 10 µM: all assays above

O=C(c1cnc2ccc(-c3ccc4c(Nc5ccccc5)noc4c3)cn12)N1CCOCC1 [US11547697, Compound 509]
> 10 µM: all assays above

CS(=O)(=O)Nc1nc2cc(-c3ccc4ncc(C(=O)N5CCOCC5)n4c3)ccc2o1 [US11547697, Compound 405]
> 10 µM: all assays above

C[C@H]1CN(c2cnc3ccc(-c4cccc5c(N)noc45)cc3n2)CCN1 [US11547697, Compound 363]
> 10 µM: all assays above

Cc1nc2ccc(-c3ccc4oc(N)nc4c3)cn2c1C(=O)N1CCOCC1 [US11547697, Compound 92]
> 10 µM: all assays above

Nc1nsc2ccc(-c3ccc4nccc(-c5ccncc5)c4c3)cc12 [US11547697, Compound 12]
> 10 µM: all assays above

Nc1n[nH]c2cc(-c3ccc4ncc(C(=O)N5CCOCC5)n4c3)ccc12 [US11547697, Compound 487]
> 10 µM: all assays above

CC(C)N1CCC(n2cnc3ccc(-c4cncc(NS(C)(=O)=O)c4)cc3c2=O)CC1 [US11547697, Compound 520]
> 10 µM: all assays above
